For test [1], the system named is TF-1 cells. Briefly: TF-1 cells viability in vitro in the presence of IL-4 (JAK1/JAK3 activation). The following applies: for IC50: Homo sapiens, TF-1, 20 ng/mL IL-4, 72 hours, ATPlite, read-out: JAK1,3 IL4 (EC50, inhibition of viability of TF-1 cells); for JAK2/JAK1,3 Ratio: ratio of TF-1 viability EC50 with IL3 to EC50 with IL4. The test is classed as cell-based. The procedure:
(§1) Assay for TF-1 Cells Viability In Vitro
(§2) The effects of the activity of the compounds of the invention were tested in vitro using cells viability assay described below.
(§3) Tested compounds were dissolved in 100% DMSO, and obtained stock solutions were serially diluted in OptiMEM medium (Reduced Serum Medium-Thermo Fisher Scientific). TF-1 cells (DSMZ no.: ACC 334) in culture medium (80% RPMI 1640+20% FBS) ad in the presence of 5 ng/mL IL-3 or 20 ng/mL IL-4 were deposited on 96-well plates in the volume of 90 μl per well, 10 thousands of cells per well. To a well of the 96-well plate 10 μL of the prepared 10× stock solutions of the compounds. Cells on 96-well plates were incubated with the compounds for 72 hours at 37° C., 5% CO2. Subsequently, viability of the cells was measured using ATPlite kit (Perkin Elmer). For this purpose, 50 μL of lysis buffer (mammalian cell lysis solution) were added to a well of the 96-well plate and the plate was incubated for 10 minutes at 25° C. in a plate thermo-shaker with orbital stirring at 600 rpm. Then to a well of the 96-well plate 50 μL of substrate (substrate solution) were added and incubated for 15 minutes at in dark, in a plate thermo-shaker with orbital stirring at 600 rpm. After incubation time, luminescence intensity in a well was measured using Victor×Light luminometer (Perkin Elmer, Inc.).
On the basis of luminescence intensity measurements in well containing tested compounds at various concentrations and in control wells EC50 values were determined. These values were determined with Graph Pad software v. 5.03, by fitting points of the curve using non-linear regression method. Each compound was tested in at least 6 repetitions (6 wells) on two 96-well plates, using at least 3 wells of each control.

Test [2] has as its system TF-1 cells. As to the kind of experiment: TF-1 cells viability in vitro in the presence of IL-3 (JAK2 activation). The following applies: Homo sapiens, 5 ng/mL IL-3, 72 hours, ATPlite, read-out: JAK2 IL3 (EC50, inhibition of viability of TF-1 cells). The test is classed as cell-based. On the procedure:
as §1, §2
as §3, with “TF-1 cells (DSMZ no.: ACC 334) in culture medium (80% RPMI 1640+20% FBS) ad in the presence of 5 ng/mL IL-3 or 20 ng/mL IL-4 were deposited on 96-well plates in the volume of 90 μl per well, 10 thousands of cells per well.” left out
On the basis of luminescence intensity measurements in well containing tested compounds at various concentrations and in control wells EC50 values were determined. These values were determined with Graph Pad software v. […] Each compound was tested in at least 6 repetitions (6 wells) on two 96-well plates, using at least 3 wells of each control.

A further test addresses Recombinant kinase JAK1 (Homo sapiens (Human), UniProt P23458). As to the kind of experiment: In vitro JAK kinase inhibition assay (ADP-Glo), JAK1. The format is biochemical. The following applies: 30 μM ATP, peptide IRS-1, averaged. On the procedure:
In Vitro JAK Kinase Inhibition Assay
The effects of the compounds of the invention were analysed in vitro using kinase JAK inhibition assay described below.
Tested compounds were dissolved in 100% DMSO, and obtained stock solutions were serially diluted in the reaction buffer (50 mM Tris pH 7.5, 10 mM MgCl2, 0.25 mM EGTA, 0.1 mM Na3VO4, 0.01% Triton X-100, 2.5 mM DTT). Recombinant kinases JAK1 (ProQinase), JAK2, or JAK3 (Carna Biosciences) were diluted in the dilution buffer (50 mM Tris-HCl pH 7.5, 150 mM NaCl, 10% glycerol, 0.05% Triton X-100, 1 mM DTT) to the final concentration 3 ng/μL (JAK1), 0.1 ng/μL (JAK2), or 0.2 ng/μL (JAK3). 5 μL of obtained solution of the compounds and 5 μL of the solution of respective kinases were added to the well of a 96-well plate. To initiate interaction between tested compounds and an enzyme, the plate was incubated for 10 minutes at 25° C. in a Plate-Thermo-Shaker with orbital stirring at 400 rpm. Wells of a negative control contained all reagents as mentioned above with the exception of tested compounds and kinase, and wells of a positive controls contained all reagents as mentioned above with the exception of tested compounds. Enzymatic reaction was initiated by the addition of 15 μL of the following solution: 5× concentrated reaction buffer (50 mM Tris pH 7.5, 10 mM MgCl2, 0.25 mM EGTA, 0.1 mM Na3VO4, 0.01% Triton X-100, 2.5 mM DTT), water, 30 μM ATP and for particular kinases: JAK1—60 μM peptide IRS-1 (Enzo), JAK2 or JAK3—10 μM peptide IGF-1Rtide (Lipopharm). Then the plate was incubated for 1 hour at 25° C. in a Plate-Thermo-Shaker, with orbital stirring at 400 rpm. Detection of ADP formed in the enzymatic reaction was then performed using ADP-Glo Kinase Assay kit (Promega). For this purpose, to the well of the 96-well plate 25 μL of ADP-Glo Reagent were added, and the plate was incubated for 40 minutes at 25° C. in a Plate-Thermo-Shaker with orbital stirring at 400 rpm. Then to the well of the 96-well plate 50 μL of Kinase Detection Reagent were added and the plate was incubated for 30 minutes at 25° C. in a Plate-Thermo-Shaker with orbital stirring at 400 rpm. After incubation, luminescence intensity was measured using Victor×Light luminometer (Perkin Elmer, Inc.).
On the basis of luminescence measurement in wells containing tested compounds at various concentrations and in control wells, IC50 values were determined. These values were determined with Graph Pad software v. 5.03, by fitting points of the curve using non-linear regression method. Each compound was tested in at least 6 repetitions (6 wells) on two 96-well plates, using at least 3 wells of each control.
Averaged results of kinases JAK inhibition activity for selected compounds of the present invention are presented below in Table 1.

SMILES strings stand for the structures.

Chain of Recombinant kinase JAK1 (P23458 whole entry): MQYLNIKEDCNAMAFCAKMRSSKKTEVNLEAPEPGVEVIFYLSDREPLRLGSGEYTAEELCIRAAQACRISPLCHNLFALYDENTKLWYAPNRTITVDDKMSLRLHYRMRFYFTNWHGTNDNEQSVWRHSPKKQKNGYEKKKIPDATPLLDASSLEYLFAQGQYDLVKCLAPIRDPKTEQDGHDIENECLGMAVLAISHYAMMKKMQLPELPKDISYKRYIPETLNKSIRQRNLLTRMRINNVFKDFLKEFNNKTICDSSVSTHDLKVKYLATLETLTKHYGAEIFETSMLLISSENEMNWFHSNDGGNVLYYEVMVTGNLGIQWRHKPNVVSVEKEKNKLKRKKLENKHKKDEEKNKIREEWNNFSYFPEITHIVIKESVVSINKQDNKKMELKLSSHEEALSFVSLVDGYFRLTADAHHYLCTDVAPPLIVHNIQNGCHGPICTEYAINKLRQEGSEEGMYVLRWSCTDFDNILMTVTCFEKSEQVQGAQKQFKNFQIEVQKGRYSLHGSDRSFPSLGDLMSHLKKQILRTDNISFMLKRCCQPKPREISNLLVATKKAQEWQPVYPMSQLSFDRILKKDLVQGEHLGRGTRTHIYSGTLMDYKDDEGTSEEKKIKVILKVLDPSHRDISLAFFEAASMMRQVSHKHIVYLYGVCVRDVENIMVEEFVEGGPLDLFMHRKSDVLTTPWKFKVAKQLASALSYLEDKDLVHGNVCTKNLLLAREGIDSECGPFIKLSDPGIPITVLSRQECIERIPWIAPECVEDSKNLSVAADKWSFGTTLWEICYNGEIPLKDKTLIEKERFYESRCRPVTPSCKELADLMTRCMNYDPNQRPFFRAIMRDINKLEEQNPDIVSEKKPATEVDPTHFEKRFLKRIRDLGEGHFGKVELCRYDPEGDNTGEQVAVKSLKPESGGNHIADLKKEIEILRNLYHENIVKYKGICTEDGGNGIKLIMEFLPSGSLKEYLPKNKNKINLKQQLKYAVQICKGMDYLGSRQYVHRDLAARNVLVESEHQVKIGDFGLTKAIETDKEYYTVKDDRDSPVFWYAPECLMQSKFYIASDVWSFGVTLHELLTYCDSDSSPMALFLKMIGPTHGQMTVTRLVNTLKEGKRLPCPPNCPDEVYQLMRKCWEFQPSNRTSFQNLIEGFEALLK

Turning to `COc1ccc(-c2cc3ncc(C(N)=O)c(N[C@@H]4CCN(c5ccc(C#N)nn5)CC4(C)C)n3n2)cn1` [Example 4, (R)-7-((1-(6-Cyanopyridazin-3-yl)-3,3-dimethylpiperidin-4-yl)amino)-2-(6-methoxy-pyridin-3-yl)pyrazolo[1,5-a]pyrimidine-6-carboxamide], the IC50 with TF-1 cells [1] worked out at 69 nM; with TF-1 cells [2] it was 707 nM; on Recombinant kinase JAK1 it was 2.67 nM. Further, in the test with TF-1 cells [1], the “JAK2/JAK1,3 Ratio” value came to 10.3.
As to `CC1(C)CN(c2ccc(C#N)nn2)CC[C@H]1Nc1c(C(N)=O)cnc2cc(-c3ccc(N4CCOCC4)nc3)nn12` [Example 7, (R)-7-((1-(6-Cyanopyridazin-3-yl)-3,3-dimethylpiperidin-4-yl)amino)-2-(6-morpholinopyridin-3-yl)pyrazolo[1,5-a]pyrimidine-6-carboxamide], the IC50 in the test on TF-1 cells [1] came to 36.1 nM; in the test on TF-1 cells [2] it was 283 nM; on Recombinant kinase JAK1, 0.75 nM. Besides, the “JAK2/JAK1,3 Ratio” value with TF-1 cells [1] came to 7.8.
Taken in the same sequence, the figures for `COc1cccc(-c2cc3ncc(C(N)=O)c(N[C@@H]4CCN(c5ccc(C#N)nn5)CC4(C)C)n3n2)n1` [Example 11, (R)-7-((1-(6-Cyanopyridazin-3-yl)-3,3-dimethylpiperidin-4-yl)amino)-2-(6-methoxy-pyridin-2-yl)pyrazolo[1,5-a]pyrimidine-6-carboxamide] were 61.1 nM, 451 nM, 0.05 nM and 7.4.
For `Cc1cc(-c2cc3ncc(C(N)=O)c(N[C@@H]4CCN(c5ccc(C#N)nn5)CC4(C)C)n3n2)ccn1` [Example 12, (R)-7-((1-(6-Cyanopyridazin-3-yl)-3,3-dimethylpiperidin-4-yl)amino)-2-(2-methyl-pyridin-4-yl)pyrazolo[1,5-a]pyrimidine-6-carboxamide], the IC50 in the test with TF-1 cells [1] was determined as 31.1 nM; in the test on TF-1 cells [2], 361 nM; at Recombinant kinase JAK1, 0.51 nM. Besides, in the test with TF-1 cells [1], the “JAK2/JAK1,3 Ratio” value was 11.6.

The record behind these values is patent publication US11072619B2, “Pyrazole[1,5-a] pyrimidine derivatives as kinase JAK inhibitors” (CELON PHARMA S.A., priority 2017, dated 2021).
